From patent US20100197797A1 (priority 2009, published 2010)

Experiments:
Type in all cases: in vivo, human
[1] = system: fibromyalgia patients; test: Placebo-controlled trials in fibromyalgia patients (safety); conditions: for patients with >15 mmHg increase in SBP at the end of the study / patients with DBP increases >10 mmHg at end of study: hypertensive at baseline; for patients with increases in ALT: mild elevations (1-3 times ULN); for patients who became hypertensive at the end of the study (SBP≧140 mmHg or DBP≧90 mmHg): non-hypertensive at baseline; for incidence of suicidal ideation: patients with a history of depression at treatment initiation; for patients who became hypertensive at the end of the study: pre-hypertension at baseline (SBP 120-139 mmHg); for mean weight loss: up to 3 months
Excerpt: The stated frequencies of adverse reactions represent the proportion of individuals who experienced, at least once, a treatment-emergent adverse reaction of the type listed. A reaction was considered treatment emergent if it occurred for the first time or worsened while receiving therapy following baseline evaluation.

[2] = system: fibromyalgia; test: Study 1, 6-month fibromyalgia efficacy study
Excerpt: (§1) Enrolled patients met the American College of Rheumatology (ACR) criteria for fibromyalgia (a history of widespread pain for 3 months and pain present at 11 or more of the 18 specific tender point sites). […] Study 1 was six months in duration and Study 2 was three months in duration.
Patients were enrolled with a minimum mean baseline pain score of ≧50 mm on a 100 mm visual analog scale (VAS) ranging from 0 (“no pain”) to 100 (“worst possible pain”). The mean baseline pain score in this trial was 69.

[3] = system: fibromyalgia; test: Study 2, 3-month fibromyalgia efficacy study
Excerpt: as §1
Patients were enrolled with a minimum mean baseline pain score of ≧40 mm on a 100-mm VAS ranging from 0 (“no pain”) to 100 (“worst possible pain”). The mean baseline pain score in this trial was 65.

[4] = Drug interaction studies in healthy adult subjects
Protocol: The drug interaction studies described below were conducted in healthy adult subjects.

[5] = 3-month placebo-controlled trials
[6] = all milnacipran hydrochloride (n = 1557)
[7] = 100 mg and 200 mg daily, 3-month time point

SMILES: CCN(CC)C(=O)C1(c2ccccc2)CC1CN.Cl (racemic) [milnacipran hydrochloride, (±)-[1R(S),2S(R)]-2-(aminomethyl)-N,N-diethyl-1-phenylcyclopropanecarboxamide hydrochloride]
- patients who discontinued prematurely due to adverse reactions ([1]; 100 mg/day): 23%
- patients with increases in AST ([1]; 100 mg/day): 3%
- patients with increases in pulse≧20 bpm ([1]; 100 mg/day): 8%
- sustained increases in DBP (≧10 mmHg on 3 consecutive post-baseline visits) ([1]; 100 mg/day): 13%
- sustained increases in SBP (≧15 mmHg on three consecutive post-baseline visits) ([1]; 100 mg/day): 9%
- Adverse reaction incidence: Abdominal pain ([1]; 100 mg/day (n = 623)): 3%
- Adverse reaction incidence: Anxiety ([1]; 100 mg/day (n = 623)): 5%
- Adverse reaction incidence: Blood pressure increased ([1]; 100 mg/day (n = 623)): 3%
- Adverse reaction incidence: Chest discomfort ([1]; 100 mg/day (n = 623)): 2%
- Adverse reaction incidence: Chest pain ([1]; 100 mg/day (n = 623)): 3%
- Adverse reaction incidence: Chills ([1]; 100 mg/day (n = 623)): 1%
- Adverse reaction incidence: Constipation ([1]; 100 mg/day (n = 623)): 16%
- Adverse reaction incidence: Decreased appetite ([1]; 100 mg/day (n = 623)): 1%
- Adverse reaction incidence: Dizziness ([1]; 100 mg/day (n = 623)): 11%
- Adverse reaction incidence: Dry mouth ([1]; 100 mg/day (n = 623)): 5%
- Adverse reaction incidence: Dyspnea ([1]; 100 mg/day (n = 623)): 2%
- Adverse reaction incidence: Flushing ([1]; 100 mg/day (n = 623)): 2%
- Adverse reaction incidence: Headache ([1]; 100 mg/day (n = 623)): 19%
- Adverse reaction incidence: Heart rate increased ([1]; 100 mg/day (n = 623)): 5%
- Adverse reaction incidence: Hot flush ([1]; 100 mg/day (n = 623)): 11%
- Adverse reaction incidence: Hyperhidrosis ([1]; 100 mg/day (n = 623)): 8%
- Adverse reaction incidence: Hypertension ([1]; 100 mg/day (n = 623)): 7%
- Adverse reaction incidence: Hypoesthesia ([1]; 100 mg/day (n = 623)): 1%
- Adverse reaction incidence: Insomnia ([1]; 100 mg/day (n = 623)): 12%
- Adverse reaction incidence: Migraine ([1]; 100 mg/day (n = 623)): 6%
- Adverse reaction incidence: Nausea ([1]; 100 mg/day (n = 623)): 35%
- Adverse reaction incidence: Palpitations ([1]; 100 mg/day (n = 623)): 8%
- Adverse reaction incidence: Paresthesia ([1]; 100 mg/day (n = 623)): 2%
- Adverse reaction incidence: Pruritus ([1]; 100 mg/day (n = 623)): 3%
- Adverse reaction incidence: Rash ([1]; 100 mg/day (n = 623)): 3%
- Adverse reaction incidence: Tachycardia ([1]; 100 mg/day (n = 623)): 3%
- Adverse reaction incidence: Tension headache ([1]; 100 mg/day (n = 623)): 2%
- Adverse reaction incidence: Tremor ([1]; 100 mg/day (n = 623)): 2%
- Adverse reaction incidence: Upper respiratory tract infection ([1]; 100 mg/day (n = 623)): 7%
- Adverse reaction incidence: Vision blurred ([1]; 100 mg/day (n = 623)): 1%
- Adverse reaction incidence: Vomiting ([1]; 100 mg/day (n = 623)): 6%
- patients with increase in ALT greater than 5 times (not exceeding 10 times) the upper limit of normal ([1]; 100 mg/day, one patient): 0.2%
- patients who discontinued prematurely due to adverse reactions ([1]; 200 mg/day): 26%
- patients with increases in AST ([1]; 200 mg/day): 5%
- patients with increases in pulse≧20 bpm ([1]; 200 mg/day): 8%
- sustained increases in DBP (≧10 mmHg on 3 consecutive post-baseline visits) ([1]; 200 mg/day): 10%
- sustained increases in SBP (≧15 mmHg on three consecutive post-baseline visits) ([1]; 200 mg/day): 6%
- Adverse reaction incidence: Abdominal pain ([1]; 200 mg/day (n = 934)): 3%
- Adverse reaction incidence: Anxiety ([1]; 200 mg/day (n = 934)): 3%
- Adverse reaction incidence: Blood pressure increased ([1]; 200 mg/day (n = 934)): 3%
- Adverse reaction incidence: Chest discomfort ([1]; 200 mg/day (n = 934)): 1%
- Adverse reaction incidence: Chest pain ([1]; 200 mg/day (n = 934)): 2%
- Adverse reaction incidence: Chills ([1]; 200 mg/day (n = 934)): 2%
- Adverse reaction incidence: Constipation ([1]; 200 mg/day (n = 934)): 15%
- Adverse reaction incidence: Decreased appetite ([1]; 200 mg/day (n = 934)): 2%
- Adverse reaction incidence: Dizziness ([1]; 200 mg/day (n = 934)): 10%
- Adverse reaction incidence: Dry mouth ([1]; 200 mg/day (n = 934)): 5%
- Adverse reaction incidence: Dyspnea ([1]; 200 mg/day (n = 934)): 2%
- Adverse reaction incidence: Flushing ([1]; 200 mg/day (n = 934)): 3%
- Adverse reaction incidence: Headache ([1]; 200 mg/day (n = 934)): 17%
- Adverse reaction incidence: Heart rate increased ([1]; 200 mg/day (n = 934)): 6%
- Adverse reaction incidence: Hot flush ([1]; 200 mg/day (n = 934)): 12%
- Adverse reaction incidence: Hyperhidrosis ([1]; 200 mg/day (n = 934)): 9%
- Adverse reaction incidence: Hypertension ([1]; 200 mg/day (n = 934)): 4%
- Adverse reaction incidence: Hypoesthesia ([1]; 200 mg/day (n = 934)): 2%
- Adverse reaction incidence: Insomnia ([1]; 200 mg/day (n = 934)): 12%
- Adverse reaction incidence: Migraine ([1]; 200 mg/day (n = 934)): 4%
- Adverse reaction incidence: Nausea ([1]; 200 mg/day (n = 934)): 39%
- Adverse reaction incidence: Palpitations ([1]; 200 mg/day (n = 934)): 7%
- Adverse reaction incidence: Paresthesia ([1]; 200 mg/day (n = 934)): 3%
- Adverse reaction incidence: Pruritus ([1]; 200 mg/day (n = 934)): 2%
- Adverse reaction incidence: Rash ([1]; 200 mg/day (n = 934)): 4%
- Adverse reaction incidence: Tachycardia ([1]; 200 mg/day (n = 934)): 2%
- Adverse reaction incidence: Tension headache ([1]; 200 mg/day (n = 934)): 1%
- Adverse reaction incidence: Tremor ([1]; 200 mg/day (n = 934)): 2%
- Adverse reaction incidence: Upper respiratory tract infection ([1]; 200 mg/day (n = 934)): 6%
- Adverse reaction incidence: Vision blurred ([1]; 200 mg/day (n = 934)): 2%
- Adverse reaction incidence: Vomiting ([1]; 200 mg/day (n = 934)): 7%
- mean increase in diastolic blood pressure (DBP) [1, 5]: up to 3.1 mm Hg
- mean increase in systolic blood pressure (SBP) [1, 5]: up to 3.1 mm Hg
- dose dependence of effect on heart rate ([1]; 100 vs 200 mg/day): did not appear to increase with increasing dose
- Adverse reaction incidence: Abdominal pain [1, 6]: 3%
- Adverse reaction incidence: Anxiety [1, 6]: 4%
- Adverse reaction incidence: Blood pressure increased [1, 6]: 3%
- Adverse reaction incidence: Chest discomfort [1, 6]: 1%
- Adverse reaction incidence: Chest pain [1, 6]: 2%
- Adverse reaction incidence: Chills [1, 6]: 2%
- Adverse reaction incidence: Constipation [1, 6]: 16%
- Adverse reaction incidence: Decreased appetite [1, 6]: 2%
- Adverse reaction incidence: Dizziness [1, 6]: 10%
- Adverse reaction incidence: Dry mouth [1, 6]: 5%
- Adverse reaction incidence: Dyspnea [1, 6]: 2%
- Adverse reaction incidence: Flushing [1, 6]: 3%
- Adverse reaction incidence: Headache [1, 6]: 18%
- Adverse reaction incidence: Heart rate increased [1, 6]: 6%
- Adverse reaction incidence: Hot flush [1, 6]: 12%
- Adverse reaction incidence: Hyperhidrosis [1, 6]: 9%
- Adverse reaction incidence: Hypertension [1, 6]: 5%
- Adverse reaction incidence: Hypoesthesia [1, 6]: 1%
- Adverse reaction incidence: Insomnia [1, 6]: 12%
- Adverse reaction incidence: Migraine [1, 6]: 5%
- Adverse reaction incidence: Nausea [1, 6]: 37%
- Adverse reaction incidence: Palpitations [1, 6]: 7%
- Adverse reaction incidence: Paresthesia [1, 6]: 2%
- Adverse reaction incidence: Pruritus [1, 6]: 2%
- Adverse reaction incidence: Rash [1, 6]: 3%
- Adverse reaction incidence: Tachycardia [1, 6]: 2%
- Adverse reaction incidence: Tension headache [1, 6]: 1%
- Adverse reaction incidence: Tremor [1, 6]: 2%
- Adverse reaction incidence: Upper respiratory tract infection [1, 6]: 6%
- Adverse reaction incidence: Vision blurred [1, 6]: 2%
- Adverse reaction incidence: Vomiting [1, 6]: 7%
- elevated transaminases vs placebo ([1]; clinical trials): more patients treated with milnacipran hydrochloride developed elevated transaminases
- risk of mydriasis ([1]; clinical trials): increased risk of mydriasis
- incidence of dysuria ([1]; controlled fibromyalgia trials): 1%
- incidence of genitourinary adverse reactions in male patients ([1]; each of dysuria, ejaculation disorder, erectile dysfunction, ejaculation failure, libido decreased, prostatitis, scrotal pain, testicular pain, testicular swelling, urinary hesitation, urinary retention, urethral pain, urine flow decreased, rate greater than placebo): at least 2%
- increases of bilirubin ([1]; fibromyalgia clinical trials): not clinically significant
- cases of ALT>3×ULN associated with bilirubin≧2×ULN ([1]; human, in vivo): No case
- most common adverse reactions (incidence≧5% and twice placebo) ([1]; human, in vivo): constipation, hot flush, hyperhidrosis, vomiting, palpitations, heart rate increased, dry mouth, and hypertension
- most frequently occurring adverse reaction ([1]; human, in vivo): nausea
- patients with >15 mmHg increase in SBP at the end of the study ([1]; 100 mg/day): 7%
- patients with DBP increases >10 mmHg at end of study ([1]; 100 mg/day): 8%
- patients with >15 mmHg increase in SBP at the end of the study ([1]; 200 mg/day): 2%
- patients with DBP increases >10 mmHg at end of study ([1]; 200 mg/day): 6%
- patients with increases in ALT ([1]; 100 mg/day): 6%
- patients with increases in ALT ([1]; 200 mg/day): 7%
- patients who became hypertensive at the end of the study (SBP≧140 mmHg or DBP≧90 mmHg) ([1]; 100 mg/day): 19.5%
- patients who became hypertensive at the end of the study (SBP≧140 mmHg or DBP≧90 mmHg) ([1]; 200 mg/day): 16.6%
- incidence of suicidal ideation ([1]; 100 mg/day): 0%
- incidence of suicidal ideation ([1]; 200 mg/day): 1.3%
- patients who became hypertensive at the end of the study ([1]; 100 mg/day): 14%
- patients who became hypertensive at the end of the study ([1]; 200 mg/day): 14%
- suicides ([1]; short-term or longer-term (up to 1 year) fibromyalgia trials): No suicides occurred
- activation of mania or hypomania ([1]; trials excluded current major depressive episode): No activation of mania or hypomania was reported
- mean weight loss ([1]; 100 mg/day): approximately 0.8 kg
- mean weight loss ([1]; 200 mg/day): approximately 0.8 kg
- patients with at least 30% reduction in pain from baseline (VAS) and globally improved (PGIC) vs placebo [2, 7]: More patients
- proportion meeting composite response criteria: pain (VAS), physical function (SF-36 PCS), patient global assessment (PGIC), vs placebo ([2]; Studies 1 and 2): larger proportion
- proportion with simultaneous pain reduction of at least 30% (VAS) and PGIC much or very much improved, vs placebo ([2]; Studies 1 and 2): larger proportion
- onset of decrease in pain ([2]; both studies, some patients globally much or very much improved, stable dose): as early as week 1
- benefit of 200 mg/day vs 100 mg/day ([2]; in vivo): did not confer greater benefit
- patients with at least 30% reduction in pain from baseline (VAS) and globally improved (PGIC) vs placebo [3, 7]: More patients
- benefit of 200 mg/day vs 100 mg/day ([3]; in vivo): did not confer greater benefit
- pharmacokinetic interaction with digoxin ([4]; 200 mg/day and digoxin 0.2 mg/day Lanoxicaps, multiple-dose): no pharmacokinetic interaction
- change in pharmacokinetics of carbamazepine or its epoxide metabolite ([4]; co-administration with milnacipran hydrochloride): No changes were observed
- adverse events after switching from clomipramine ([4]; human, in vivo): an increase in euphoria and postural hypotension
- hemodynamic adverse effects in combination with digoxin ([4]; intravenously administered digoxin (1 mg)): Postural hypotension and tachycardia have been reported
- effect on pharmacokinetics of lithium ([4]; multiple doses, 100 mg/day): did not affect
- pharmacokinetic interaction with lorazepam ([4]; single dose 50 mg and lorazepam 1.5 mg): no pharmacokinetic interaction
